Results on one compound are retold here after patent US10731222B2 (RNA Diagnostics Inc., priority 2013, dated 2020).

Molecules are shown by their SMILES. Entries after “also recorded” stand apart in the source; their conditions may differ.

In assay [1] the test system is A2780 ovarian cancer cells. Description: RNA disruption in drug-treated A2780 cells (Agilent Bioanalyzer electropherogram, RDI). Format: cell-based, human. As for the experimental part:
RNA was isolated from ovarian cancer cell line A2780 cells which had been treated with 10 μM docetaxel in 50% media or 20 μM epirubicin, each in 50% media. Cells were treated with the chemotherapeutic for 24 hours at 37° C. Isolated RNA was separated by microcapillary electrophoresis using the Agilent 2100 Bioanalyzer.
Cells were plated and treated with docetaxel concentrations ranging from 0.001-40 μM for 24 to 72 hours to assess the effect on cell number, RNA content, and integrity (measured using a Bioanalyzer 2100 from Agilent Technologies, Inc.).
A2780 cells treated for up to 72 hours with docetaxel at 0.005 uM and 0.2 uM, were analyzed for the amount of RNA per cell. RNA was isolated and electophoretically separated using an Agilent Bioanalyzer.
RNA was isolated and electrophoretically separated on an Agilent Bioanalyzer. As shown in FIG. 24D bands appeared just below the 28S (e.g. intermediate) and 18S bands (e.g. low banding region) at 0.005 uM and peaked at 0.2 uM.
A time course experiment was conducted in A2780 cells. Cells were treated for up to 72 hours with docetaxel at 0.005 uM and 0.2 uM. RNA was isolated and run on an Agilent Bioanalyzer.
The effect of a caspase inhibitor on RNA integrity changes was next assessed. Cells were treated with or without docetaxel at a concentration of 0.2 uM in the presence or absence of the caspase inhibitor Q-DEVD-OPH (Biovision Laboratories) at a concentration of 10 uM.

Another assay has as its system parental A2780 cells. Description: Clonogenic assay, drug-sensitive parental cells. Format: cell-based. To be noted: Homo sapiens, 50% of colony formation suppressed. From the text: (§1) RDA like clonogenic assays can be used to identify drugs that are cytotoxic (FIG. 24C iv). […] The cell lines have widely differing sensitivity to docetaxel in a clonogenic assay, with IC50 values differing by over three orders of magnitude.

For assay [2], the system named is docetaxel-resistant A2780DXL cells. Description: Clonogenic assay, docetaxel-resistant cells. To be noted: 50% of colony formation suppressed. Format: cell-based.
Description: (§2) A docetaxel A2780 resistant cell line was made as described in Li et al., Int. J. Mol. Med 2004 14(20): 257-264.
as §1

Assay [3] has the same test system. Description: RNA disruption in docetaxel-resistant cells. Format: cell-based. To be noted: docetaxel treatment. As for the experimental part:
as §2
A time course experiment was conducted. Sensitive parental and docetaxel resistant A2780 cells were treated with docetaxel for 24 hours. RNA was isolated and run on an Agilent Bioanalyzer.
The a\Ability of RDA to detect potentiators of docetaxel (Dxl) sensitivity. […] Thus, RDA may be used to screen for potentiators of chemotherapy drug cytotoxicity.

Assay [4] has as its system CaOV3 ovarian tumour cell line. Description: Docetaxel-induced RNA disruption, CaOV3. Format: cell-based.
In assay [5] the test system is Jurkat leukemia cell line. Description: Docetaxel-induced RNA disruption, Jurkat. It counts as cell-based.
In assay [6] the test system is A2780 ovarian tumour cell line. Description: Apoptosis markers in drug-treated cells (Annexin V-FITC, DNA content, PARP cleavage, caspase activity). Format: cell-based, human. How it is done: Various cell lines were treated with anti-cancer agents and the effects of these treatments on the cellular RNA banding pattern, Annexin V-FITC binding to cells, cellular DNA content, poly ADP ribose polymerase (PARP) cleavage, and cell proliferation in the absence of drug post-treatment were assessed.

The test system of the next assay is A2780 cells. Description: Cell counts and Recovery Assay of A2780 cells after docetaxel.

Regarding `CC(=O)O[C@@]12CO[C@@H]1C[C@H](O)[C@@]1(C)C(=O)[C@H](O)C3=C(C)[C@@H](OC(=O)[C@H](O)[C@@H](NC(=O)OC(C)(C)C)c4ccccc4)C[C@@](O)([C@@H](OC(=O)c4ccccc4)[C@H]21)C3(C)C` [docetaxel], the “amount of RNA per cell” value in assay [1] (0.005 uM and 0.2 uM, up to 72 hours) was “increase in a time-dependent and dose-dependent manner”. Moreover, the electropherogram pattern entry in assay [1] (10 μM in 50% media, 24 hours, 37° C.) is “an intermediate peak and a peak adjacent to the 18S peak”. The RDI in assay [1] (0.2 micromolar, 72 hrs, 0.23 prior to drug) amounted to 3.09. The RNA concentration result in assay [1] (0.2 micromolar, 72 hrs, 1220 prior to drug) is “about 359 ng/microliter”. In assay [1] (24 hours), the “concentration at which the novel banding peaked” value came out at 0.2 µM. Also, the “ratio of Low C Area/(28S+18S)” value in assay [1] (after 72 hr, little change at 8, 24 or 48 hr) is on record as “dramatic increase”. The RIN entry in assay [1] (concentrations ≥0.005 uM) is reported as “did not change significantly”. In addition, the “concentration giving reductions in cell number and RIN and increased RDI” value in assay [1] (dose and time-dependent) is at least 0.1 µM. Moreover, the “response of cells in culture to the agent” value in assay [1] (dose- and time-dependent) is listed as “RNA disruption”. In addition, the IC50 (in general, the concentration that gives 50% inhibition) with parental A2780 cells was around 0.0011 µM. Moreover, the 50% inhibitory concentration (IC50) in assay [2] is around 0.65 µM. In addition, the “RNA disruption / banding below 28S and 18S” value in assay [3] is “no banding is evident; also recorded: did not result in RNA disruption; also recorded: do not show docetaxel-induced RNA disruption”. The “docetaxel-induced RNA disruption” value in assay [4] is recorded as “RNA disruption was also observed”. Besides, in assay [5], the “docetaxel-induced RNA disruption” value is listed as “RNA disruption was also observed”. Also, in assay [6], the “Annexin V-FITC binding” value is listed as “enhance Annexin V-FITC binding to cells”, the DNA laddering result is “no DNA laddering was observed”, the PARP cleavage entry was “induce the cleavage of poly ADP ribose polymerase (PARP)” and the “cellular DNA content” value was “generate cells containing a sub-G1 level of DNA content”. For the same compound, the cellular caspase activity result in assay [6] is “activated cellular caspase activity”. Besides, in assay [6] (after drug-treatment), the “membrane integrity (propidium iodide staining)” value is recorded as “lack of propiclium iodide staining”. For the same compound, the “recovery in drug-free media” value in the assay on A2780 cells (5 nM) is “permitted cell recovery, but only when the incubation period was 48 hours or less”. Also, the “recovery in drug-free media” value with A2780 cells (0.2 uM for up to 72 hours, washed and replated) is given as “No resumption of cell proliferation”. Also, the “concentrations at which cell numbers remained constant” value in the assay with A2780 cells (up to 72 hours) was “greater than or equal to 0.005 uM”.
